From ChEMBL document CHEMBL1201862, “PubChem BioAssay data set” (2004)
Active and inactive are the calls of the source.

Assays:
[1] = molecular target: Tyrosine-protein phosphatase non-receptor type 5 (Homo sapiens, UniProt P54829); assay: STEP phosphatase inhibitors, confirmation, biochemical, fluorescence intensity, uHTS hits (AID 602372); type: functional; settings: read-out: IC50_Mean
Cytochrome P450 3A4 = Cytochrome P450 3A4 (Homo sapiens, UniProt P08684);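 further: CYP3A4 tested as one member of a cytochrome P450 panel screen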
Sequence of Cytochrome P450 3A4 (P08684 whole entry): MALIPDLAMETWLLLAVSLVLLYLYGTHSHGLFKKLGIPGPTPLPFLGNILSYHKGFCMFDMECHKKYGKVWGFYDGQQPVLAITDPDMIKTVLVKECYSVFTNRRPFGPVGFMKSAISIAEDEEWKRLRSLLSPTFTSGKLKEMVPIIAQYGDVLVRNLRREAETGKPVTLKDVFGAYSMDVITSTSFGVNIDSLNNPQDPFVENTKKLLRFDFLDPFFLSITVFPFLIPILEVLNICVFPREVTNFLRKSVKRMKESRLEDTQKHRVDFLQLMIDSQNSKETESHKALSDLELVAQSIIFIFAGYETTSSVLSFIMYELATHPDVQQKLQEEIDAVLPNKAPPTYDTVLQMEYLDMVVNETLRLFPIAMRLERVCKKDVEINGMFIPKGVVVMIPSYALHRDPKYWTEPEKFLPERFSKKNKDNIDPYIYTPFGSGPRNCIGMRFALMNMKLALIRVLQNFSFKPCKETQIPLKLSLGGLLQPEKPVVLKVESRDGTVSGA

[2] = molecular target: Tyrosine-protein phosphatase non-receptor type 11 (Homo sapiens, UniProt Q06124); assay: SHP2 phosphatase inhibition, dose response, selectivity assay for STEP inhibitor project, biochemical (AID 602367); type: functional; settings: read-out: IC50_Mean
Sequence of Tyrosine-protein phosphatase non-receptor type 11 (Q06124 whole entry): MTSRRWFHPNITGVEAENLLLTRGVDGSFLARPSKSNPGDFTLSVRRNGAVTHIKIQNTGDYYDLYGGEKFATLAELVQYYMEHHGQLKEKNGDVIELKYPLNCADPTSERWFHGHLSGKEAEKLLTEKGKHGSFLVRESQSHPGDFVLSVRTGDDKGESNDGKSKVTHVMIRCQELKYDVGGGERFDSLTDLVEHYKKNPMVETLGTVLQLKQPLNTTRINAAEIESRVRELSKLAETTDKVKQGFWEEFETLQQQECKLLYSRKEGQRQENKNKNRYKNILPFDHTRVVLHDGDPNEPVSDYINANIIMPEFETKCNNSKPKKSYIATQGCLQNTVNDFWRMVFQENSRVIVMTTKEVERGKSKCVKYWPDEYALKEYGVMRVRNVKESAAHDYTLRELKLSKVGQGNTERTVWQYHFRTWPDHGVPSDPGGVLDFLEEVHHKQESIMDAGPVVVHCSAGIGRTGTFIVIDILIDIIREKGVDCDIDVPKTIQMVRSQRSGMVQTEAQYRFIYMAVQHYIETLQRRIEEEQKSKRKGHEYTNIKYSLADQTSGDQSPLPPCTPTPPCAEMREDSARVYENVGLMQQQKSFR

[3] = molecular target: Dual specificity protein phosphatase 3 (Homo sapiens, UniProt P51452); assay: VHR phosphatase inhibition, dose response, selectivity assay for STEP inhibitor project, biochemical (AID 602374); type: functional; settings: read-out: IC50_Mean
Sequence of Dual specificity protein phosphatase 3 (P51452 whole entry): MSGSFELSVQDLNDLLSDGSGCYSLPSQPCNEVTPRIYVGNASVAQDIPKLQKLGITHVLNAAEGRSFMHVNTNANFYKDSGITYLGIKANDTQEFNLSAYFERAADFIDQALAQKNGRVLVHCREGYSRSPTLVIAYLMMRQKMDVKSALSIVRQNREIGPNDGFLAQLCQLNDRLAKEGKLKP

[4] = molecular target: 26S proteasome non-ATPase regulatory subunit 14 (Homo sapiens, UniProt O00487); assay: inhibition of proteasome subunit RPN11 – biochemical, fluorescence polarization, uHTS hits, confirmation (AID 602368); type: functional
Sequence of 26S proteasome non-ATPase regulatory subunit 14 (O00487 whole entry): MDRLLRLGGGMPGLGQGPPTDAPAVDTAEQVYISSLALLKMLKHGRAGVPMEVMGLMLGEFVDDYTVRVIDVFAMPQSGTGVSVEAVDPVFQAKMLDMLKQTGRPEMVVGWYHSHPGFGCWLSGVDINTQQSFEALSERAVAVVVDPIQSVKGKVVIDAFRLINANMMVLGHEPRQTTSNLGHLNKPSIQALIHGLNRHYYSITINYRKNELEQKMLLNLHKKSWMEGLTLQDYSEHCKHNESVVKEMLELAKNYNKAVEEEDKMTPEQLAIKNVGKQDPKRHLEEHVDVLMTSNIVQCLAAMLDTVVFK

[5] = molecular target: 72 kDa type IV collagenase (Homo sapiens, UniProt P08253); assay: Dose Response validation of uHTS RPN11 inhibitor hits using a MMP-2 Fluorescence assay.; type: functional
Sequence of 72 kDa type IV collagenase (P08253 whole entry): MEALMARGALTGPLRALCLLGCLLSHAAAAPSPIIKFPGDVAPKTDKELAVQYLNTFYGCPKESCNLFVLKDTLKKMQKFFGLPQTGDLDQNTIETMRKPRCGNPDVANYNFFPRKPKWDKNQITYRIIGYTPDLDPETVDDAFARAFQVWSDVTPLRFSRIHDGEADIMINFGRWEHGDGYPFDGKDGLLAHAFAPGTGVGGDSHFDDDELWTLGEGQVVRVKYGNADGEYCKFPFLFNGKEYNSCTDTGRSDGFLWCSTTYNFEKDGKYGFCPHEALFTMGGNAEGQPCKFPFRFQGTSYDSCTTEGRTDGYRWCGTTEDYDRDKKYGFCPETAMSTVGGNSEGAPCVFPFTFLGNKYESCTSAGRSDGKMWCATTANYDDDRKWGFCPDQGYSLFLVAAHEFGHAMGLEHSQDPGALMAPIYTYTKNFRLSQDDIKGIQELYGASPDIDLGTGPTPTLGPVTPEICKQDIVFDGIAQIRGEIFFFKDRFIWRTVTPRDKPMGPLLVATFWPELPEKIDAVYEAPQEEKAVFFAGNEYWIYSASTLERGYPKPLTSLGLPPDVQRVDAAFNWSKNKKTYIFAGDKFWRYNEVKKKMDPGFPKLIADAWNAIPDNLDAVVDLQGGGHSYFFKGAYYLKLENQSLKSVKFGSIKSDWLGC

Prothrombin = Prothrombin (Bos taurus, UniProt P00735); assay: thrombin inhibition, dose response, biochemical, fluorescence polarization, uHTS hits (AID 602369); type: functional
Large T antigen = Large T antigen (Simian virus 40, UniProt P03070); type: functional, Betapolyomavirus macacae;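 further: Confirmatory-stage PubChem screen for compounds that inhibit SV40 T antigen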
Sequence of Large T antigen (P03070 whole entry): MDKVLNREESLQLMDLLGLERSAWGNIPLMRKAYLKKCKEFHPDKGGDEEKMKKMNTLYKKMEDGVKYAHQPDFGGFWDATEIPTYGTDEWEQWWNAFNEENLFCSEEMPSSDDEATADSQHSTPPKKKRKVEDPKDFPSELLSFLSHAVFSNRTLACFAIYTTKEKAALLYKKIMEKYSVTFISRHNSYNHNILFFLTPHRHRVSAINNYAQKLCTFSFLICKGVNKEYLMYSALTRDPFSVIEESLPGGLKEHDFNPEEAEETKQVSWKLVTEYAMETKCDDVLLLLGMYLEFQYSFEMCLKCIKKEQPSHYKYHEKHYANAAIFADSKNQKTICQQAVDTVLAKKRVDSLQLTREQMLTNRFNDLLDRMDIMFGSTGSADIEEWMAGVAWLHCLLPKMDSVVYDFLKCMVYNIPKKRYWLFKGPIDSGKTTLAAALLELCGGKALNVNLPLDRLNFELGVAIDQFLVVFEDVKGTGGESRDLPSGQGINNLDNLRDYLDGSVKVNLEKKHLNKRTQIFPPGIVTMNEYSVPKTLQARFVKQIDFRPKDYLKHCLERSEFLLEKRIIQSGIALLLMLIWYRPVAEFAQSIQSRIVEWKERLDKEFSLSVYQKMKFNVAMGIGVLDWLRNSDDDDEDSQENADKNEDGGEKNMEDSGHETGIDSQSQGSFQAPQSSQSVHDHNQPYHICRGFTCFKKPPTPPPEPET

[6] = CRF-BP/CRF-R2 complex antagonists, dose response, cell-based, uHTS hits, 384-well (AID 651639); type: functional, Homo sapiens; settings: read-out: IC50_Mean
[7] = molecular target: T1, Corticotropin-releasing factor receptor 2/Corticotropin-releasing factor-binding protein (Homo sapiens, UniProt P24387+Q13324); assay: activators of CRF receptor 2 with binding protein – uHTS hits, confirmation (AID 602473); type: functional; settings: read-out: EC50_Mean
T1 sequence (Q13324 whole entry): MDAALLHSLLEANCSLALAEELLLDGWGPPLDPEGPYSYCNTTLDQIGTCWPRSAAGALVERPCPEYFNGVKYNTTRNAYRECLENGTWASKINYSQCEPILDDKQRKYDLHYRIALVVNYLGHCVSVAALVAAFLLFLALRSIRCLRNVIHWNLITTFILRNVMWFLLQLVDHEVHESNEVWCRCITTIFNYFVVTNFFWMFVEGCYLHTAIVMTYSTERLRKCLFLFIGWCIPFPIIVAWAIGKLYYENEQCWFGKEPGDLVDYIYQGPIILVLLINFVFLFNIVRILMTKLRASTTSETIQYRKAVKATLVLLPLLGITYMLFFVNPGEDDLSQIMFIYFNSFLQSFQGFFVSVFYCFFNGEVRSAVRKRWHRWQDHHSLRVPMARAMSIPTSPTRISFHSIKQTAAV
T1 sequence (P24387 whole entry): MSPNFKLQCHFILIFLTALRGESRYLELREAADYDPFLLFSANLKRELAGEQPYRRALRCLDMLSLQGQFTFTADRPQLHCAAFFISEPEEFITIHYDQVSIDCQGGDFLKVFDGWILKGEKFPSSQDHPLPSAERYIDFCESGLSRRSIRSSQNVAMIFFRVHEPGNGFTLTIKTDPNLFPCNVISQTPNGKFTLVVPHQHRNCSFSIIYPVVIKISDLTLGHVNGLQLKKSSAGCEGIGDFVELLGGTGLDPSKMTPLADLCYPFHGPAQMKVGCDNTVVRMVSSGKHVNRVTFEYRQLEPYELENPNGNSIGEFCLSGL

[8] = molecular target: T1, Corticotropin-releasing factor receptor 2/Corticotropin-releasing factor-binding protein; assay: Dose Response confirmation of uHTS hits for small molecule antagonists of the CRF-binding protein and CRF-R2 receptor complex.; type: functional; settings: read-out: IC50_Mean
[9] = molecular target: Photoreceptor-specific nuclear receptor (Homo sapiens, UniProt Q9Y5X4); type: functional, cell-based;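 further: CHO-S cells with Gal4-NCOR and VP16-NR2E3 two-hybrid luciferase reporter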
Sequence of Photoreceptor-specific nuclear receptor (Q9Y5X4 whole entry, the tested form may be a part): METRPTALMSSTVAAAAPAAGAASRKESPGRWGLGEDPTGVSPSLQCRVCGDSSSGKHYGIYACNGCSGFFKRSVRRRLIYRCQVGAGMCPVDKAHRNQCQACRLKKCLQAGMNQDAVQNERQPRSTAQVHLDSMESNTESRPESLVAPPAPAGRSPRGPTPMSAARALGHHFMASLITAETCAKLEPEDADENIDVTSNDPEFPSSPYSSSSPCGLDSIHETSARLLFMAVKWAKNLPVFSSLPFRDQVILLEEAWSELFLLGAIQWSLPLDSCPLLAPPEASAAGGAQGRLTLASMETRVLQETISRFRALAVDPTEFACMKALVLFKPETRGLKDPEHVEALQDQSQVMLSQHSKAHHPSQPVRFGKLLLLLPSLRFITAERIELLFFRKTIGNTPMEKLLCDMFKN

[10] = cytotoxicity toward NIH3T3 fibroblasts, dose response, counter-screen, cell-based, ATP luminescence, mouse fibroblasts (AID 2010); type: functional;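 further: cells exposed to compound for about 90 hours before reading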
[11] = inhibitors of intracellular T. cruzi replication, confirmation, NIH3T3 host cells, beta-gal luminescence (AID 2044); type: functional, cell-based;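 further: intracellular parasites grown in NIH/3T3 mouse fibroblasts as host cells; luminescent beta-galactosidase reporter signal from transgenic T. cruzi replicating inside host cells; inhibitors lower the luminescence signal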
[12] = molecular target: T2, Tyrosyl-DNA phosphodiesterase 2 (Homo sapiens, UniProt O95551); assay: human TDP2 enzyme inhibitors, dose response, biochemical, epi absorbance, IC50 (AID 743297)
T2 sequence (O95551 whole entry): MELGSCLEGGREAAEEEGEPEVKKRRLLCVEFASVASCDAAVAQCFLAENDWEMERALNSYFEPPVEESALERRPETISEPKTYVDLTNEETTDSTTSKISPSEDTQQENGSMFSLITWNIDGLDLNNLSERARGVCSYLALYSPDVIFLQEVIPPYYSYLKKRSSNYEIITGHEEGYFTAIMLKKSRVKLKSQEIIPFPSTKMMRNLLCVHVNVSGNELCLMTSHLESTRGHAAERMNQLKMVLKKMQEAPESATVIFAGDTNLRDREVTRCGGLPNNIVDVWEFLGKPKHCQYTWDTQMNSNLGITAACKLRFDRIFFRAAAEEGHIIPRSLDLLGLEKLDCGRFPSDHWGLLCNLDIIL

[13] = molecular target: T3, Mitochondrial peptide methionine sulfoxide reductase (Bos taurus, UniProt P54149); assay: Absorbance-based biochemical high throughput dose response assay for activators of Methionine sulfoxide reductase A (MsrA).; type: functional
T3 sequence (P54149 whole entry): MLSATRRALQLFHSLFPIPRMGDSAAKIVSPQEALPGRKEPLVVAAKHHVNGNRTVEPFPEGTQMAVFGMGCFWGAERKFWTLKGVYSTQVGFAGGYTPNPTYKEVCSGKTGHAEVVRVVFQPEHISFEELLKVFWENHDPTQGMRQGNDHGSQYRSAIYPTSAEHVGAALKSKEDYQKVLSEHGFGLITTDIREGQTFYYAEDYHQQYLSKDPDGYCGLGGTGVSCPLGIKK

[14] = HeLa cell cytotoxicity, dose response, cytotoxicity control for MgcRacGAP inhibitor project (AID 624300); type: functional
[15] = molecular target: T4, Rac GTPase-activating protein 1 (Homo sapiens, UniProt Q9H0H5); assay: MgcRacGAP GTPase-activating activity inhibitors, confirmation, biochemical, ADP Hunter fluorescence, primary and confirmatory (AID 624330); type: functional
T4 sequence (Q9H0H5 whole entry): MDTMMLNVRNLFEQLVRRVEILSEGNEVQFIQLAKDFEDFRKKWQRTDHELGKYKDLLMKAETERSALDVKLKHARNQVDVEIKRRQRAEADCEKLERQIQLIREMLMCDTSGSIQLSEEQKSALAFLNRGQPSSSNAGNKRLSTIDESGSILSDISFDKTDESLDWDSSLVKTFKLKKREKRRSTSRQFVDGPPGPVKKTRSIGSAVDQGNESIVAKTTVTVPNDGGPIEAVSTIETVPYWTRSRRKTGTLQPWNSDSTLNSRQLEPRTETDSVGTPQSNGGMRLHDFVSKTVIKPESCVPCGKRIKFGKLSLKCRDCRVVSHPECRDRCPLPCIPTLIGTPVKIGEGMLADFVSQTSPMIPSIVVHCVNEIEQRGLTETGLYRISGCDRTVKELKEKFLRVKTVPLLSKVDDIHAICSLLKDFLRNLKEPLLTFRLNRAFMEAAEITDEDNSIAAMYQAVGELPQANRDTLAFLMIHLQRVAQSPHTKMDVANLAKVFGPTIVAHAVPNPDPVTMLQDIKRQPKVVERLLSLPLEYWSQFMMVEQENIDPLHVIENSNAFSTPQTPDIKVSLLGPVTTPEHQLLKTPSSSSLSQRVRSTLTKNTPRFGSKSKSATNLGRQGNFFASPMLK

[16] = Shn3 3'UTR reporter inhibitors, dose response, cell-based, Clone20 osteoblasts, firefly luciferase, cherry-picked (AID 624132); type: functional;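 further: firefly luciferase luminescence from reporter carrying the Shn3 3'UTR in osteoblasts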
[17] = HepG2 cell cytotoxicity, dose response, cytotoxicity control for Shn3 inhibitor project, CellTiter-Glo, cherry-picked (AID 624134); type: functional, cell-based
[18] = control 3'UTR Renilla luciferase suppression, dose response, counter-screen for Shn3 inhibitor project, cell-based, Clone20-Shn3RL, cherry-picked (AID 624133); type: functional
[19] = molecular target: Potassium voltage-gated channel subfamily KQT member 2 (Rattus norvegicus, UniProt O88943); assay: KCNQ2 potassium channel inhibitors, dose response, cell-based, automated electrophysiology, set II, rat KCNQ2 (AID 588637); type: functional
Sequence of Potassium voltage-gated channel subfamily KQT member 2 (O88943 whole entry): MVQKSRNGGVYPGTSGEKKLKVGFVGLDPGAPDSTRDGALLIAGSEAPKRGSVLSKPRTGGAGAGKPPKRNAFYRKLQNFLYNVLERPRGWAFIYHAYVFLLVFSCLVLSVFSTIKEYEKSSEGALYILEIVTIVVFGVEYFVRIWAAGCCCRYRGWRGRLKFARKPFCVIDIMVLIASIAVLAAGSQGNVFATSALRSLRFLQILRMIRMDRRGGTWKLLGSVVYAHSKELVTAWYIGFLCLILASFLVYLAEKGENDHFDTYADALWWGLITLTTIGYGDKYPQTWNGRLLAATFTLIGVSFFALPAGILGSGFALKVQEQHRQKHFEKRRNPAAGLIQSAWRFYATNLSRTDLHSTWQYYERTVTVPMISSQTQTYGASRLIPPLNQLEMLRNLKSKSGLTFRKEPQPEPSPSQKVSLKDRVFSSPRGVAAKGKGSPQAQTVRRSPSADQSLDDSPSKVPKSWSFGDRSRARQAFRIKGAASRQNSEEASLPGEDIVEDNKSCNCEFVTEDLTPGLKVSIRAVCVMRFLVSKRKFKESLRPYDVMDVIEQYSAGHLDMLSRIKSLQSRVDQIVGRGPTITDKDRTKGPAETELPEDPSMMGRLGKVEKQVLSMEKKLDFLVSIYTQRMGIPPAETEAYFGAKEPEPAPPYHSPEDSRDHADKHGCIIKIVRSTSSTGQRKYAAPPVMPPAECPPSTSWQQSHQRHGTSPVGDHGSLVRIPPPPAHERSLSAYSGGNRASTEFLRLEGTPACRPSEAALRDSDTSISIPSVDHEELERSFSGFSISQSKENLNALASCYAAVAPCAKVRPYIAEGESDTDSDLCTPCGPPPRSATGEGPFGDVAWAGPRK

Streptokinase A = molecular target: T5, Streptokinase A (Streptococcus pyogenes serotype M1, UniProt P10520); assay: S. pyogenes streptokinase expression inhibitors, potency, dose response, plasminogen activation absorbance, OD405 (AID 1914); type: functional, Streptococcus pyogenes M1 GAS;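 further: secreted streptokinase activity via plasminogen activation per viability signal from cell pellet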
T5 sequence (P10520 whole entry): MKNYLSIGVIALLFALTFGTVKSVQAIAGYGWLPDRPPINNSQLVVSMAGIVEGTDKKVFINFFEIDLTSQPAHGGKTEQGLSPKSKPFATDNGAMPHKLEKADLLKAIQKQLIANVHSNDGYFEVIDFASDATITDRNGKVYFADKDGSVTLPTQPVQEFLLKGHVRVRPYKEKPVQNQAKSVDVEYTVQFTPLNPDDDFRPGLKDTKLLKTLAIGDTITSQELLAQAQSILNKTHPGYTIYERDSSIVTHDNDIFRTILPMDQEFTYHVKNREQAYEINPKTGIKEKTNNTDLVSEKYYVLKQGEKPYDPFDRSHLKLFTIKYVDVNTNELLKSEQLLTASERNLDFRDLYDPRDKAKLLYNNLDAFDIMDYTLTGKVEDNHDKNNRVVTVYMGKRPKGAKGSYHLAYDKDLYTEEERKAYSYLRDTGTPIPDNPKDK

Streptococcus = assay: Group A Streptococcus viability loss, dose response, counter-screen for streptokinase expression inhibitor project, luminescence, BacTiterGlo (AID 1915); type: functional, organism-based;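 further: potency for reduction of bacterial viability or growth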
[20] = system: Streptococcus sp. 'group A'; assay: growth inhibition of control SK(-) GAS strain, dose response, counter-screen for streptokinase expression inhibitor project, luminescence, kanamycin, BacTiterGlo, confirmation (AID 1900); type: functional, organism-based
Cysteine protease ATG4B = molecular target: T6, Cysteine protease ATG4B (Homo sapiens, UniProt Q9Y4P1); type: functional;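 further: Fluorescence-based dose-response confirmation assay measuring inhibition of ATG4B activity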
T6 sequence (Q9Y4P1 whole entry): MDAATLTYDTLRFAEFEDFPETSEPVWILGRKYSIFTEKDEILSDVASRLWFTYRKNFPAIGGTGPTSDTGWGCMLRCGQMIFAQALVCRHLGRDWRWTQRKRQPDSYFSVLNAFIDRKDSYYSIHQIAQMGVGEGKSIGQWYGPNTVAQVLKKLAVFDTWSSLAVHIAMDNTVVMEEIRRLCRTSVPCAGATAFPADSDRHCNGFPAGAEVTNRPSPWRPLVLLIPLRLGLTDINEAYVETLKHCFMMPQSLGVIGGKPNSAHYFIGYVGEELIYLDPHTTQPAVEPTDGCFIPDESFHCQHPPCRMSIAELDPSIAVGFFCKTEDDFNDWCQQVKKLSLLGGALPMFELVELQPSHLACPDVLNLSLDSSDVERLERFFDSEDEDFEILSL

Phospholipase A2 = Phospholipase A2 (Homo sapiens, UniProt P04054); type: functional;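 further: confirmatory dose-response counterscreen on phospholipase A2, testing hits that came from an ultra-high-throughput screen for ATG4B inhibitors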
Sequence of Phospholipase A2 (P04054 whole entry): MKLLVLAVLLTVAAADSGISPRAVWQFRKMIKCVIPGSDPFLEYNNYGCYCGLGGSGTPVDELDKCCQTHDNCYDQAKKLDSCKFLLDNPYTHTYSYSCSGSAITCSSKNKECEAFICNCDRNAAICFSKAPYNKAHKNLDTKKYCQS

[21] = C. albicans growth with fluconazole, confirmation, fluorescence, retest (AID 2467); type: functional, cell-based
[22] = NIH-3T3 fibroblast cytotoxicity, dose response, cytotoxicity control, cell-based, fluorescence, Alamar Blue, secondary assay (AID 2327); type: functional;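 further: NIH-3T3 mouse fibroblasts cultured with fluconazole at 8 µg/mL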

Sequence of Tyrosine-protein phosphatase non-receptor type 5 (P54829 whole entry): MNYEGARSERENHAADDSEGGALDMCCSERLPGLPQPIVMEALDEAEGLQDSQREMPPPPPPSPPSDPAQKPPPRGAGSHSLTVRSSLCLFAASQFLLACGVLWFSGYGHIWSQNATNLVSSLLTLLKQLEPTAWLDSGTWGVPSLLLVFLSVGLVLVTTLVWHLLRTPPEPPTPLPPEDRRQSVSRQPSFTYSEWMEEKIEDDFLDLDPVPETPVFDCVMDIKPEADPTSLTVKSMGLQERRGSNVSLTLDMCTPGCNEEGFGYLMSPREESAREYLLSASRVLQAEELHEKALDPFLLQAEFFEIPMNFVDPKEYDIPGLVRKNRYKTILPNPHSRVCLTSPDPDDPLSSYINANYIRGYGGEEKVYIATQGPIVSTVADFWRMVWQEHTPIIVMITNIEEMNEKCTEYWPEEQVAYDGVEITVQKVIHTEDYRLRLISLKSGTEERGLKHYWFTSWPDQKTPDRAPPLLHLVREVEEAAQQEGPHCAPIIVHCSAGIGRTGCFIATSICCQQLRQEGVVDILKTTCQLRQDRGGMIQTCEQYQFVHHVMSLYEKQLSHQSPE

CCN1CCN(C(=S)c2ccc(Br)cc2)CC1
IC50 [1]: 39.4 µM (inactive)
AC50 (Cytochrome P450 3A4): 17.8 µM (inconclusive)
IC50 [2]: 1.88 µM (active)
IC50 [3]: 0.942 µM (active)

CCOc1cc(/C=C2\NC(=S)N(c3c(C)n(C)n(-c4ccccc4)c3=O)C2=O)ccc1O
IC50 [4]: 27.9 µM (active)
IC50 [5]: 9.31 µM (active)
IC50 (Prothrombin): 39.7 µM (active)
IC50 (Large T antigen): 5.37 µM (active)

O=C(Nc1cc(Cl)cc(Cl)c1)c1coc(=O)c(Br)c1
IC50 [6]: > 20 µM (inactive)
EC50 [7]: 15.1 µM (active)
IC50 [8]: 8.37 µM (active)

O=C(CSc1nnnn1-c1ccc2c(c1)OCCO2)Nc1nc2c(s1)CCCC2
IC50 [9]: 1.6 µM (active)

Cn1nc([N+](=O)[O-])nc1Oc1ccc(C(C)(C)C)cc1
EC50 [10]: > 60 µM (inconclusive)
IC50 [6]: 9.25 µM (active)
EC50 [11]: 0.201 µM (active)
EC50 [7]: > 53 µM (inactive)
IC50 [8]: 12.7 µM (active)

COc1cc(NC(=S)N2CCN(C)CC2)c(OC)cc1Cl
IC50 [1]: > 80 µM (inactive)
IC50 [2]: 7.71 µM (active)
IC50 [3]: 4 µM (active)

COc1cc(C=c2c3ccccc3n3c2cc(-c2ccccc2)[n+]3C)cc(OC)c1OC
IC50 [12]: > 128 µM (inactive)
EC50 [13]: > 104 µM (inactive)
CC50 [14]: 100 µM (active)
IC50 [15]: 323 µM (active)

C=C1C(=O)OC2CC(C)C3C=CC(=O)C3(C)C(O)C12 (stereo not given)
IC50 [9]: 2.74 µM (active)
AC50 [16]: < 0.26 µM (active)
AC50 [17]: 5.16 µM (active)
AC50 [18]: 2.68 µM (active)

COc1ccc(CCN(C)C(=O)c2cc(-c3ccc(C)cc3)nc3ccccc23)cc1OC
IC50 [19]: 0.59 µM (active)

C/C(=N\Nc1nc(N2CCCCCC2)nc(N2CCCCCC2)n1)c1ccccc1
EC50 (Streptokinase A): 5.5 µM (active)
EC50 (Streptococcus): 9.52 µM (active)
IC50 [19]: 1.62 µM (active)
EC50 [20]: 7.16 µM (active)

COc1cc(OC)cc(-c2nnc(Nc3nc4c(F)cccc4s3)o2)c1
IC50 (Cysteine protease ATG4B): 5.68 µM (active)
IC50 [4]: 30.1 µM (active)
IC50 (Phospholipase A2): > 80 µM (inactive)
IC50 [5]: > 100 µM (inactive)
IC50 (Prothrombin): 62.8 µM (active)
EC50 [21]: > 38 µM (not active)
EC50 [22]: > 150 µM (inconclusive)
